Measurements taken from patent US20140274785A1, “BIOMARKERS” (priority 2013, published 2014).
“Also recorded” adds a separate entry of the source.

What was measured:
SOD1-G93A TGN mice = test: Onset of symptoms (stride length/gait analysis) and death in SOD1-G93A TGN mice, treatment started presymptomatic (7 weeks); assay type: in vivo, mouse; conditions: for Onset of motor deficits: vehicle 20% cyclodextran 88-100 days; for Mortality: vehicle 20% cyclodextran 105-112 days
Protocol: The one and two-drug treatments were started at an early (i.e., presymptomatic) stage of disease (7 weeks). SOD1-G93A TGN mice were treated 3 times a week with noscapine (0.2 mg/kg body weight) and/or MK-801 (12 mg/kg body weight/day). Mice received noscapine intraperitoneally and MK-801 in drinking water.
Female SOD-1 G93A TGN mice were obtained from Jackson laboratory (strain #2726). The controls were matched litter mates. Treatment groups were three per group. Noscapine was injected intraperitoneal in the thigh 3 times/week (0.2 mg/kg i.p.) and MK801 was administered continuously in drinking water (12 mg/kg/d). Gait analysis was done by the method of Wooley et al., Muscle Nerve 2005 32(1):43-50 and Carter et al. J. Neurosci., 19(8):3248-3257, hereby incorporated by reference in their entirety.
For clinical assessment endpoints scoring was selected as follows:
Clinical signs: Full mobility and no observable difference in behavior from age-matched controls (Gait or stride length analysis).
Clinical signs: Abnormal Gait or stride length analysis and hindlimb weakness: >40% reduction in stride length vs. age-matched littermates.
Clinical signs: noticeable and complete hind limb paralysis (which in this strain occurs more on one limb than the other) and inability to right themselves in 5 sec time window. This stage starts usually as the mice are failing the gait analysis test and enter the End stage. Therefore, Transgenic SOD1-G93A TGN mice are euthanized at the onset of noticeable and complete hindlimb paralysis and inability to right themselves in 5 sec time window.

[1] = test system: fast axonal transport of 2H-labeled cargo proteins; test: MT-mediated fast axonal transport: CSF secretion kinetics and spinal cord retention of 2H-labeled cargo proteins in symptomatic SOD1G93A mice; assay type: in vivo, mouse
hyperdynamic MTs = test: Microtubule turnover in MPTP-injected PD mouse model; assay type: in vivo; conditions: treatment from 7 days after last MPTP injection for 10 days; n=4
Protocol: FIGS. 28A-28B show an illustration of altered microtubule (MT) turnover in two preclinical models of Parkinson's disease (PD). (A) The acute MPTP intoxication PD model (8 wk old C57b1/6 mice were injected four times with 20 mg/kg on 1 day, at 2 h interval) show hyperdynamic tau-associated and cold-stable (CS) MTs in striatum and substantia nigra at 3 and 7 days after the last (fourth) MPTP injection (n=4 per group, males aged 8 weeks, mean±SD; *P<0.001). (B) In vivo MT dynamics was measured in substantia nigra and striatum at presymptomatic (4 and 10 months) and symptomatic (15 months) disease stage in transgenic alpha-synucleinA53T PD mice (−/−/SNCAA53T). […]
FIGS. 29A-29C show normalized microtubule (MT) turnover correlate with reverse of symptoms in the MPTP-injected PD mouse model after treatment with the MTMA noscapine. […] Neuromuscular strength was measured using the grip strength test (B) and the grid hang test (C). Grip strength test measured the tension peak of pull (gram of force) by the forepaws and it was performed 1 day before (day 0), 1, 2, 3, 4, 5, 7 and 17 days after the last (fourth) MPTP injection (n=10, males per each time point). The hang test was performed 17 days after the last (fourth) MPTP-injection and percentage of success was recorded as maximum time hanging/300 sec×100 (n=10, males per each time point).

MPTP-injected mice = test: Neuromuscular strength (grip strength test, grid hang test) in MPTP-injected mice; assay type: in vivo, mouse; conditions: treatment from 7 days after last MPTP injection for 10 days; n=10
Protocol: Noscapine was administered at 7 days after the last MPTP-injection, treatment was for 10 days and a pulse of ^2H2O labeling was administered the last day of treatment (17 days after, fourth, MPTP injection). […] Neuromuscular strength was measured using the grip strength test (B) and the grid hang test (C). […] The hang test was performed 17 days after the last (fourth) MPTP-injection and percentage of success was recorded as maximum time hanging/300 sec×100 (n=10, males per each time point).

[2] = test system: transport of neuronal cargo proteins; test: CSF secretion kinetics of 2H-labeled cargo proteins in symptomatic PD MPTP-injected mice; assay type: in vivo, mouse
Protocol: Noscapine was administered 7 days after the last MPTP injection, treatment was for 10 days, and a pulse of ^2H2O labeling was administered on the last day of treatment (17 days after the fourth and final MPTP injection

## C[C@]12N[C@H](Cc3ccccc31)c1ccccc12 [MK-801, Dizocilipine]
SOD1-G93A TGN mice
  Onset of motor deficits: 105 to 112 days
  Mortality: 112 to 119 days

## COc1ccc2c(c1OC)C(=O)O[C@@H]2[C@H]1c2c(cc3c(c2OC)OCO3)CCN1C [Noscapine, noscapine]
SOD1-G93A TGN mice
  Onset of motor deficits: 98 to 105 days
  Mortality: 112 to 119 days
[1]; 3 weeks treatment, 100 mg/kg/d and 200 mg/kg/d, 13 weeks mice
  MT-mediated fast axonal transport rates of 2H-label neuregulin-1 and chromogranin-B containing synaptic vesicles: normalized; also recorded: improves this delayed fast axonal transport
[1]; symptomatic ALS SOD1G93A
  kinetic of 2H-alpha synuclein in CSF: not adversely affected
[1]; symptomatic ALS SOD1G93A, vs age-matched wild type, n=10 per time point
  transport rates of 2H-Chr-B, 2H-NeuR-1 and 2H-sAPP in CSF: normalized transport rates
Hyperdynamic MTs
  hyperdynamic MTs: reduced hyperdynamic MTs
MPTP-injected mice
  symptoms (grip strength test, grid hang test): reverses symptoms
[2]; symptomatic PD MPTP-injected mice
  kinetics of 2H-NeuR-1 in CSF: not adversely affected
[2]; treatment from 7 days after last MPTP injection for 10 days, n=10 per time point
  kinetics of secretion of 2H-Chr-B, 2H-sAPP in CSF: normalized the kinetics of secretion
